Experimental data: PubChem BioAssay AID330 (DTP/NCI, 2004)
“And” between values parts separate entries of the source, which are not always exact repeats. Equal entries are not always repeated. Inconclusive results and toxic doses are left out. How the source made its calls: active means survival T/C of 150% or more; inactive means T/C below 125% in these data.

Test system: P388 leukemia ip, CD2F1 mice, survival T/C
Assay: NCI In Vivo Anticancer Drug Screen. Data for tumor model P388 Leukemia (intraperitoneal) in CD2F1 (CDF1) mice
Details: endpoint: median survival time, higher = longer survival
How it was run: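 Mice carrying the transplanted tumor received test compound or vehicle. Survival was recorded in each group, and the value is the treated-group measurement divided by that of the vehicle-treated control group.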

[1] = dose: 60.0 mg/kg/injection, schedule: Q01DX005 (ip), vehicle: saline with Tween-80
[2] = dose: 120.0 mg/kg/injection, schedule: Q01DX005 (ip), vehicle: saline with Tween-80
[3] = dose: 240.0 mg/kg/injection, schedule: Q01DX005 (ip), vehicle: saline with Tween-80
[4] = dose: 50.0 mg/kg/injection, schedule: Q01DX005 (ip), vehicle: saline with Tween-80
[5] = dose: 100.0 mg/kg/injection, schedule: Q01DX005 (ip), vehicle: saline with Tween-80
[6] = dose: 200.0 mg/kg/injection, schedule: Q01DX005 (ip), vehicle: saline with Tween-80
[7] = dose: 6.25 mg/kg/injection, schedule: Q04DX003 (ip), vehicle: saline
[8] = dose: 12.5 mg/kg/injection, schedule: Q04DX003 (ip), vehicle: saline
[9] = dose: 25.0 mg/kg/injection, schedule: Q04DX003 (ip), vehicle: saline
[10] = dose: 50.0 mg/kg/injection, schedule: Q01DX009 (ip), vehicle: saline with Tween-80
[11] = dose: 100.0 mg/kg/injection, schedule: Q01DX009 (ip), vehicle: saline with Tween-80
[12] = dose: 50.0 mg/kg/injection, schedule: Q01DX005 (ip), vehicle: Klucel (hydroxypropylcellulose) (HPC)
[13] = dose: 100.0 mg/kg/injection, schedule: Q01DX005 (ip), vehicle: Klucel (hydroxypropylcellulose) (HPC)
[14] = dose: 200.0 mg/kg/injection, schedule: Q01DX005 (ip), vehicle: Klucel (hydroxypropylcellulose) (HPC)
[15] = dose: 100.0 mg/kg/injection, schedule: Q04DX003 (ip), vehicle: saline with Tween-80
[16] = dose: 200.0 mg/kg/injection, schedule: Q04DX003 (ip), vehicle: saline with Tween-80

Measured: T/C

C=C1CCC2C(C)(C(=O)O)CCCC2(C)C1CCc1ccoc1 (stereo not drawn)
inactive: dose: 12.75 mg/kg/injection, schedule: Q01DX005 (ip), vehicle: Klucel + Tween-80 102 % of control | dose: 25.5 mg/kg/injection, schedule: Q01DX005 (ip), vehicle: Klucel + Tween-80 96 % of control | dose: 51.0 mg/kg/injection, schedule: Q01DX005 (ip), vehicle: Klucel + Tween-80 110 % of control | dose: 102.0 mg/kg/injection, schedule: Q01DX005 (ip), vehicle: Klucel + Tween-80 110 % of control

CCNC(=O)N(Cc1ccccc1)Cc1ccccc1
inactive: dose: 12.5 mg/kg/injection, schedule: Q01DX009 (ip), vehicle: other 114 % of control | dose: 25.0 mg/kg/injection, schedule: Q01DX009 (ip), vehicle: other 112 % of control | dose: 50.0 mg/kg/injection, schedule: Q01DX009 (ip), vehicle: other 104 % of control | dose: 100.0 mg/kg/injection, schedule: Q01DX009 (ip), vehicle: other 118 % of control

COC(=O)C1=C(OC)C(C(=O)c2ccccc2)NC1=O (stereo not drawn)
inactive: [1] 111 % of control | [2] 100 % of control | [3] 99 % of control

O=C(NCc1ccccc1)C1C(=O)N(Cc2ccccc2)C(=O)/C1=N/O (stereo not drawn)
inactive: [4] 100 % of control | [5] 100 % of control | [6] 100 % of control

C=C1C(=O)OC2C1CCC1(C)CCCC(=C)C21 (stereo not drawn)
inactive: dose: 2.5 mg/kg/injection, schedule: Q01DX009 (ip), vehicle: Klucel (hydroxypropylcellulose) (HPC) 93 % of control | dose: 5.0 mg/kg/injection, schedule: Q01DX009 (ip), vehicle: Klucel (hydroxypropylcellulose) (HPC) 96 % of control | dose: 10.0 mg/kg/injection, schedule: Q01DX009 (ip), vehicle: Klucel (hydroxypropylcellulose) (HPC) 92 % of control | dose: 20.0 mg/kg/injection, schedule: Q01DX009 (ip), vehicle: Klucel (hydroxypropylcellulose) (HPC) 96 % of control

N=C(N)c1ccc(-c2[nH]c3cc(C(=N)N)ccc3c2N)cc1
inactive: [7] 86 % of control | [8] 88 % of control | [9] 92 % of control

O=S(/N=C/c1ccccc1)c1ccc(Cl)cc1 (stereo not drawn)
inactive: [10] 96 % of control | [11] 89 % of control

COC(=O)CCSC(=O)Nc1ccc(Cl)cc1
inactive: [12] 105 % of control | [13] 101 % of control | [14] 113 % of control

CC(=O)OCC1CC2COCC2CC1COC(C)=O (stereo not drawn)
inactive: [1] 100 % of control | [2] 108 % of control | [3] 102 % of control

CN1CCc2nc[nH]c2C1
inactive: dose: 100.0 mg/kg/injection, schedule: Q04DX002 (ip), vehicle: saline 97 % of control | dose: 200.0 mg/kg/injection, schedule: Q04DX002 (ip), vehicle: saline 101 % of control | dose: 400.0 mg/kg/injection, schedule: Q04DX002 (ip), vehicle: saline 99 % of control

C=Cc1nc(N)nc(-c2ccc(C)cc2)n1
inactive: [12] 110 % of control | [13] 111 % of control | [14] 118 % of control

N#CC(C#N)=C(C#N)C#N
inactive: [15] 103 % of control | [16] 103 % of control

CCCN1C(=O)CC(c2ccc(OC)c(OC)c2)C1=O (stereo not drawn)
inactive: [1] 90 % of control | [2] 90 % of control | [3] 90 % of control

Cc1cc(=O)n2c3c(c4c(cc13)c(CBr)cc(=O)n4C)OC2
inactive: dose: 12.5 mg/kg/injection, schedule: Q01DX001 (ip), vehicle: Klucel (hydroxypropylcellulose) (HPC) 96 % of control | dose: 25.0 mg/kg/injection, schedule: Q01DX001 (ip), vehicle: Klucel (hydroxypropylcellulose) (HPC) 96 % of control | dose: 50.0 mg/kg/injection, schedule: Q01DX001 (ip), vehicle: Klucel (hydroxypropylcellulose) (HPC) 112 % of control | dose: 100.0 mg/kg/injection, schedule: Q01DX001 (ip), vehicle: Klucel (hydroxypropylcellulose) (HPC) 101 % of control

O=C(c1ccc([N+](=O)[O-])cc1)c1cnc2nc(-c3ccccc3)c(-c3ccccc3)nn12
inactive: dose: 12.5 mg/kg/injection, schedule: Q01DX005 (ip), vehicle: saline with Tween-80 99 % of control | dose: 25.0 mg/kg/injection, schedule: Q01DX005 (ip), vehicle: saline with Tween-80 97 % of control | [4] 88 % of control and 93 % of control | [5] 89 % of control | [6] 96 % of control

O=C1CSC(c2ccccc2Cl)N1N1C(=O)CSC1c1ccccc1Cl (stereo not drawn)
inactive: dose: 60.0 mg/kg/injection, schedule: Q01DX005 (ip), vehicle: Klucel (hydroxypropylcellulose) (HPC) 100 % of control | dose: 120.0 mg/kg/injection, schedule: Q01DX005 (ip), vehicle: Klucel (hydroxypropylcellulose) (HPC) 93 % of control | dose: 240.0 mg/kg/injection, schedule: Q01DX005 (ip), vehicle: Klucel (hydroxypropylcellulose) (HPC) 98 % of control

Cc1oc2c(C)c3oc(=O)cc(C)c3cc2c1CCl
inactive: dose: 12.5 mg/kg/injection, schedule: Q04DX002 (ip), vehicle: saline with Tween-80 114 % of control | dose: 25.0 mg/kg/injection, schedule: Q04DX002 (ip), vehicle: saline with Tween-80 123 % of control | dose: 400.0 mg/kg/injection, schedule: Q05DX002 (ip), vehicle: saline with Tween-80 98 % of control

Oc1ccccc1/C=N\Nc1ccccc1
inactive: dose: 100.0 mg/kg/injection, schedule: Q01DX001 (ip), vehicle: other 113 % of control | dose: 200.0 mg/kg/injection, schedule: Q01DX001 (ip), vehicle: other 118 % of control | dose: 400.0 mg/kg/injection, schedule: Q01DX001 (ip), vehicle: other 100 % of control

CNC(=S)N/N=C\C(C)=N/Nc1ccc(F)cc1
inactive: dose: 100.0 mg/kg/injection, schedule: Q04DX003 (ip), vehicle: saline 99 % of control | dose: 200.0 mg/kg/injection, schedule: Q04DX003 (ip), vehicle: saline 99 % of control | dose: 400.0 mg/kg/injection, schedule: Q04DX003 (ip), vehicle: saline 94 % of control

Oc1ccc(SCc2ccc(NCc3ccccc3)cc2)cc1
inactive: [10] 113 % of control and 117 % of control | [11] 119 % of control

CC(C)=CCCC(C)(OC1OC(CO)C(O)C(O)C1O)C1CCC2(C)C1C(O)CC1C3(C)CCC(O)C(C)(C)C3C(OC3OC(CO)C(O)C(O)C3OC3OC(C)C(O)C(O)C3O)CC12C (stereo not drawn)
inactive: dose: 2.0 mg/kg/injection, schedule: Q01DX009 (ip), vehicle: Klucel (hydroxypropylcellulose) (HPC) 88 % of control | dose: 4.0 mg/kg/injection, schedule: Q01DX009 (ip), vehicle: Klucel (hydroxypropylcellulose) (HPC) 92 % of control | dose: 8.0 mg/kg/injection, schedule: Q01DX009 (ip), vehicle: Klucel (hydroxypropylcellulose) (HPC) 92 % of control | dose: 16.0 mg/kg/injection, schedule: Q01DX009 (ip), vehicle: Klucel (hydroxypropylcellulose) (HPC) 95 % of control | dose: 25.0 mg/kg/injection, schedule: Q01DX009 (ip), vehicle: Klucel (hydroxypropylcellulose) (HPC) 98 % of control | dose: 32.0 mg/kg/injection, schedule: Q01DX009 (ip), vehicle: Klucel (hydroxypropylcellulose) (HPC) 88 % of control | dose: 50.0 mg/kg/injection, schedule: Q01DX009 (ip), vehicle: Klucel (hydroxypropylcellulose) (HPC) 100 % of control | dose: 100.0 mg/kg/injection, schedule: Q01DX009 (ip), vehicle: Klucel (hydroxypropylcellulose) (HPC) 100 % of control | dose: 200.0 mg/kg/injection, schedule: Q01DX009 (ip), vehicle: Klucel (hydroxypropylcellulose) (HPC) 98 % of control

Nc1ccc(Nc2c3ccccc3nc3ccccc23)cc1
inactive: [7] 104 % of control | [8] 100 % of control | [9] 121 % of control

CC(NNC(=S)N1CC2CCC(CC2)C1)c1cc2ccccc2cn1 (stereo not drawn)
inactive: [4] 114 % of control | [5] 112 % of control | [6] 121 % of control

[O-][n+]1nn(CC(O)CCl)c2ccccc21 (stereo not drawn)
inactive: [4] 102 % of control | [5] 102 % of control | [15] 103 % of control | [6] 100 % of control | [16] 98 % of control | dose: 400.0 mg/kg/injection, schedule: Q04DX003 (ip), vehicle: saline with Tween-80 93 % of control

COc1cc2c(cc1Oc1ccc(OC)c3c1CC1c4c(cc(OC)c(OC)c4-3)CCN1C)CC1c3c(cc(OC)c(OC)c3-2)CCN1C (stereo not drawn)
inactive: dose: 20.0 mg/kg/injection, schedule: Q01DX009 (ip), vehicle: water 94 % of control | dose: 40.0 mg/kg/injection, schedule: Q01DX009 (ip), vehicle: water 101 % of control | dose: 80.0 mg/kg/injection, schedule: Q01DX009 (ip), vehicle: water 93 % of control | dose: 160.0 mg/kg/injection, schedule: Q01DX009 (ip), vehicle: water 93 % of control
